In patent US20250067727A1, “BIOENGINEERED NEURONAL ORGANOIDS (BENOS) AND USES THEREOF” (Georg-August-Universität Göttingen Stiftung Öffentlichen …, priority 2017, published 2025):

Key:
[1] = system: bioengineered neuronal organoids (BENOs) from human pluripotent stem cells; assay: qPCR transcript analysis of neuronal and glia markers in BENOs; type: cell-based; set-up: PAX6 transcripts: dose or concentration left out as unconfirmed
Experimental: (§1) In initial attempts, single SMAD pathway inhibition (using noggin) was employed to elicit neural induction, along with the addition of retinoic acid (RA). In the present study, it was tested whether dual SMAD signaling pathway inhibition using noggin and SB431542 during the neural induction phase (days 0-8) might further enhance neurogenesis, e.g., at day 28. Accordingly, NCM containing only noggin, or NCM containing noggin and SB431542, were each investigated.
Numerous conventional protocols in the literature employ neurotrophic factors BDNF and GDNF to improve neuronal survival at the differentiation and maturation stages. Therefore, it was tested whether the addition of BDNF (20 ng/ml) and GDNF (10 ng/ml) to NPEM during culture days 10-28 would result in a higher number of maturing neurons by day 28 (FIG. 4). […]
In all protocols, the differentiation was carried out in Neurobasal™ medium supplemented with B27 and N2. hiPS cells were subjected to neuroectoderm induction (days 0-8) under dual SMAD inhibition (noggin & SB431542) and additional retinoic acid (RA) supplementation to mimic signaling that occurs during embryonic neurogenesis. In protocol 2, the proliferative effects of FGF-2 (day 8-15) in neural progenitor cells (NPCs) were tested. In protocol 3, the effect of Notch inhibitor DAPT in neuronal commitment of NPCs (day 15-28) was tested. In protocol 4, the proliferative effects of TGF-beta 1 for glia cells (day 8-28) were tested. In protocol 5, TGF-beta 1 and DAPT treatments were combined in order to test whether development of glia and neurons can be enhanced simultaneously.
In order to assess the neurogenic and gliogenic potential afforded by the different protocols, tissues were collected at days −1, 0, 3, 8, 15, 28 and 40 (3-6 tissues/time point). Since the treatment until day 8 was identical for all protocols, tissues until that time point were only collected from protocol 1. […] Since treatment with DAPT (protocols 3 and 5) was evidently supporting neurogenesis and TGF-beta 1 appeared to support gliogenesis, the time course analysis was extended for protocol 3 (DAPT) and protocol 5 (DAPT and TGF-beta 1).

[2] = system: bioengineered neuronal organoids (BENOs) from human pluripotent stem cells; assay: whole mount immunofluorescence (neurofilament) analysis of BENOs; type: cell-based
Experimental: as §1
Consequently, it appears advantageous to increase the amount of neural progenitor cells (NPCs) inside the tissue by treating the organoids with FGF-2 (days 8-15). This corresponds to the use of NPEM in the above protocol. To test whether the use of FGF-2 is favorable, tissues (3000 cell/μl) were treated with 10 ng/ml FGF-2 at two different time-points; day −2 to day 0 (before neural induction at the stem cell stage), and day 8 to day 15 at the NPC stage (FIG. 3B).

[3] = system: GABAergic network of BENOs (GABAR); assay: calcium imaging of BENO neuronal network under GABAergic inhibition; type: cell-based, human; conditions: for synchrony of the same neurons upon inhibitor washout: after picrotoxin 58 μM and saclofen 330 μM; for synchrony of previously spontaneously synchronized neurons under GABAR inhibition: picrotoxin 58 μM and saclofen 330 μM applied together, BENOs days 30-60, n=3, 4 pairs of cells
Experimental: To test neuronal network activity, BENOs (days 30-60) were subjected to calcium imaging under GABAergic inhibition (carried out using picrotoxin, 58 μM; saclofen, 330 μM; n=3). GABAR inhibition led to an asynchrony of previously spontaneously synchronized neurons (4 pairs of cells).

[4] = protocols 3 and 5, DAPT day 15-28, time course
[5] = SB431542 added to noggin during neural induction (days 0-8) vs noggin only, n=4 tissues/group
[6] = BDNF (20 ng/ml) and GDNF (10 ng/ml) added together, culture days 10-28, analysed day 28

C[C@H](NC(=O)Cc1cc(F)cc(F)c1)C(=O)NC(C(=O)OC(C)(C)C)c1ccccc1 (stereo partly shown) [DAPT]
PAX6 transcripts ([1]; DAPT added to NDM, day 15-28): increase | amount of the neuronal marker GABBR2 [1, 4]: significantly increased | amount of the neuronal marker GRIN1 [1, 4]: significantly increased | amount of the neuronal marker MAP2 [1, 4]: significantly increased | amount of the neuronal marker PAX 6 [1, 4]: significantly increased

NC(=O)c1ccc(-c2nc(-c3ccc4c(c3)OCO4)c(-c3ccccn3)[nH]2)cc1 [SB431542]
increase of neuronal marker MAP2 (qPCR) [1, 5]: 21 fold | increase of neuronal marker PAX6 (qPCR) [1, 5]: 21 fold | amount of maturing neurons (immunofluorescence and PAX6/MAP2 transcripts) ([2]; dual SMAD inhibition, noggin and SB431542, days 0-8, vs noggin only, day 28): clearly observed to be advantageous

NCC(CS(=O)(=O)O)c1ccc(Cl)cc1 (stereo not shown) [saclofen]
synchrony of the same neurons upon inhibitor washout [3]: re-synchronized | synchrony of previously spontaneously synchronized neurons under GABAR inhibition [3]: asynchrony

FGF-2: member of the fibroblast growth factor family, encoded by the FGF2 gene
level of different markers (OCT4, GFAP, PAX6, MAP2, GRIN1, GABBR2) at any time point ([1]; protocol 2, FGF-2 day 8-15, time course days -1 to 40): did not significantly influence | neurofilament staining, double treatment vs single treatment ([2]; 10 ng/ml FGF-2, day -2-0 and days 8-15 vs days 8-15 only): did not seem to be advantageous | neurofilament staining, advantage compared to untreated tissues ([2]; 10 ng/ml FGF-2, day -2 to day 0 (stem cell stage), read at day 28): did not appear to provide any advantage | neuronal network complexity at day 28 (IF whole mount staining of neurofilament) ([2]; 10 ng/ml FGF-2, days 8-15): more complex neuronal networks | proliferation of the cells including NPCs ([2]; 10 ng/ml FGF-2, days 8-15 (NPC stage)): markedly induced proliferation

TGF-beta 1: transforming growth factor beta 1 (Peprotech)
amount of the glia marker GFAP ([1]; protocols 4 and 5, TGF-beta 1 day 8-28, by day 40, vs the other 3 protocols): higher amounts

picrotoxin
synchrony of the same neurons upon inhibitor washout [3]: re-synchronized | synchrony of previously spontaneously synchronized neurons under GABAR inhibition [3]: asynchrony

B1: BDNF: neurotrophic factor used to improve neuronal survival (protein, UniProt P23560 129-247, looked up)
Neurotrophic factor BDNF: HSDPARRGELSVCDSISEWVTAADKKTAVDMSGGTVTVLEKVPVSKGQLKQYFYETKCNPMGYTKEGCRGIDKRHWNSQCRTTQSYVRALTMDSKKRIGWRFIRIDTSCVCTLTIKRGR
modifications: Neurotrophic factor BDNF
amount of the maturation marker MAP2 [1, 6]: do not increase | amount of the neuronal marker PAX 6 [1, 6]: do not increase

B2: GDNF: neurotrophic factor used to improve neuronal survival (protein, UniProt P39905 78-211, looked up)
Glial cell line-derived …: SPDKQMAVLPRRERNRQAAAANPENSRGKGRRGQRGKNRGCVLTAIHLNVTDLGLGYETKEELIFRYCSGSCDAAETTYDKILKNLSRNRRLVSDKVGQACCRPIAFDDDLSFLDDNLVYHILRKHSAKRCGCI
amount of the maturation marker MAP2 [1, 6]: do not increase | amount of the neuronal marker PAX 6 [1, 6]: do not increase
